According to patent publication US20090143279A1 (priority 2007, published 2009):
Like-named read-outs stand apart in the source and are kept apart here.

Legend:
[1] = tested on: cytochrome c; type: cell-based, mouse
[2] = tested on: C2C12 myotubes
[3] = tested on: mitochondrial membrane potential; type: cell-based, mouse
[4] = tested on: OXPHOS gene expression; type: cell-based, mouse
[5] = tested on: cellular dehydrogenase activity
[6] = tested on: reactive oxygen species; type: cell-based, mouse
[7] = tested on: nuOXPHOS transcripts; type: cell-based, mouse
[8] = tested on: mtOXPHOS transcripts; type: cell-based, mouse
[9] = composite Z-score vs mock-treated (DMSO) wells, Conc 20 μM
[10] = Conc 20 μM, normalized score vs mock-treated (DMSO) wells
[11] = 20 μM, composite Z-score vs DMSO
[12] = composite Z-score vs DMSO wells, Conc 20 μM
[13] = composite Z-score vs DMSO, Conc 20 μM
[14] = normalized composite Z-score vs mock-treated (DMSO) wells, Conc 20 μM

SMILES: COc1ccccc1/C=C/C(=O)O [coumarinic acid methyl ether]
- cyt c (composite Z-score) [1]: 0.170
- Viability (composite Z-score) [2]: −0.844
- ΔΨm (composite Z-score) [3]: −1.070
- GE-HTS (composite Z-score) [4]: 0.143
- MTT (composite Z-score) [5]: −2.099
- ROS (composite Z-score) [6]: 0.917
- nucOX (composite Z-score) [7]: 0.031
- mitoOX (composite Z-score) [8]: 0.383

SMILES: C=C1C(=O)O[C@H]2C[C@@H]1C(OC(C)=O)C/C(C)=C/CC/C(C)=C/CC[C@@]2(C)O (stereo partly shown) [crassin acetate]
- cyt c [1, 9]: −1.840
- Viability [2, 9]: −2.757
- ΔΨm [3, 9]: 0.374
- GE-HTS [4, 9]: −0.720
- MTT [5, 9]: −1.220
- ROS [6, 9]: −1.394
- nucOX [7, 9]: −0.685
- mitoOX [8, 9]: −0.703

SMILES: CC(C)(O)CC[C@@H](O)[C@](C)(O)[C@H]1CC[C@@]2(O)C3=CC(=O)[C@@H]4C[C@@H](O)[C@@H](O)C[C@]4(C)[C@H]3CC[C@]12C [crustecdysone]
- cyt c (composite Z-score) [1, 10]: 0.468
- Viability (composite Z-score) [2, 10]: −0.458
- ΔΨm (composite Z-score) [3, 10]: −0.721
- GE-HTS (composite Z-score) [4, 10]: 0.354
- MTT (composite Z-score) [5, 10]: −0.545
- ROS (composite Z-score) [6, 10]: 0.657
- nucOX (composite Z-score) [7, 10]: 0.487
- mitoOX (composite Z-score) [8, 10]: 0.062

SMILES: NC1(C(=O)O)CCCC1 [cycloleucine]
- cyt c [1, 11]: 0.822
- Viability [2, 11]: −1.300
- ΔΨm [3, 11]: −0.765
- GE-HTS [4, 11]: −0.839
- MTT [5, 11]: −1.310
- ROS [6, 11]: 0.024
- nucOX [7, 11]: −0.495
- mitoOX [8, 11]: −1.397

SMILES: CN(C)CCOC(=O)C(c1ccccc1)C1(O)CCCC1 (stereo not shown) [cyclopentolate]
- cyt c [1]: 0.859
- cyt c [1, 12]: −0.283
- Viability [2, 12]: −0.300
- ΔΨm [3, 12]: −0.072
- GE-HTS [4, 12]: 0.556
- MTT [5, 12]: −0.756
- ROS [6, 12]: −0.406
- nucOX [7, 12]: 0.830
- mitoOX [8, 12]: −0.037

SMILES: CC(=O)C1=C(O)[C@@H]2[C@H]3c4c[nH]c5cccc(c45)C[C@H]3C(C)(C)N2C1=O [cyclopiazonic acid]
- cyt c [1, 13]: 0.033
- Viability [2, 13]: −1.392
- ΔΨm [3, 13]: 0.863
- GE-HTS [4, 13]: 0.186
- MTT [5, 13]: −1.107
- ROS [6, 13]: −0.293
- nucOX [7, 13]: 0.163
- mitoOX [8, 13]: 0.172

SMILES: CO[C@H]1C[C@H](O[C@H]2CC[C@]3(C=O)[C@H]4CC[C@]5(C)[C@@H](C6=CC(=O)OC6)CC[C@]5(O)[C@@H]4CC[C@]3(O)C2)O[C@H](C)[C@H]1O [cymarin]
- cyt c (composite Z-score) [1, 10]: 0.356
- Viability (composite Z-score) [2, 10]: −1.155
- ΔΨm (composite Z-score) [3, 10]: −0.996
- GE-HTS (composite Z-score) [4, 10]: −0.473
- MTT (composite Z-score) [5, 10]: −1.849
- ROS (composite Z-score) [6, 10]: 0.695
- nucOX (composite Z-score) [7, 10]: −0.412
- mitoOX (composite Z-score) [8, 10]: −0.464

SMILES: CC(=O)[C@@]1(O)CC[C@H]2[C@@H]3C=C(Cl)C4=CC(=O)[C@@H]5C[C@@H]5[C@]4(C)[C@H]3CC[C@@]21C [cyproterone]
- cyt c [1, 13]: 0.548
- Viability [2, 13]: 0.014
- ΔΨm [3, 13]: −0.962
- GE-HTS [4, 13]: −0.490
- MTT [5, 13]: 0.079
- ROS [6, 13]: 1.155
- nucOX [7, 13]: −0.461
- mitoOX [8, 13]: −0.446

SMILES: CC(=O)O[C@H]1C[C@@H](OC(C)=O)C(C)(C)C2CC(=O)[C@]3(C)C(CC[C@@]4(C)[C@H](C(=O)O)OC(=O)C5OC543)[C@]21C (stereo partly shown) [deacetoxy(7)-7-oxokhivorinic acid]
- cyt c [1, 14]: 0.816
- Viability [2, 14]: −0.174
- ΔΨm [3, 14]: −0.539
- GE-HTS [4, 14]: −0.919
- MTT [5, 14]: −1.282
- ROS [6, 14]: 2.352
- nucOX [7, 14]: −0.937
- mitoOX [8, 14]: −0.664

SMILES: CC1(C)C=CC(=O)[C@@]2(C)C1CC(=O)[C@]1(C)C2CC[C@@]2(C)[C@H](c3ccoc3)OC(=O)C3OC321 (stereo partly shown) [deacetoxy-7-oxisogedunin]
- cyt c (composite Z-score) [1, 10]: 0.153
- Viability (composite Z-score) [2, 10]: −0.301
- ΔΨm (composite Z-score) [3, 10]: 0.332
- GE-HTS (composite Z-score) [4, 10]: 0.816
- MTT (composite Z-score) [5, 10]: −0.791
- ROS (composite Z-score) [6, 10]: 0.898
- nucOX (composite Z-score) [7, 10]: 0.821
- mitoOX (composite Z-score) [8, 10]: 0.694

SMILES: CC1(C)C(=O)C=C[C@]2(C)[C@H]3CC[C@@]4(C)[C@H](c5ccoc5)OC(=O)[C@H]5O[C@]54[C@]3(C)C(=O)C[C@@H]12 [deacetoxy-7-oxogedunin]
- cyt c [1, 9]: 0.047
- Viability [2, 9]: 0.089
- ΔΨm [3, 9]: 1.322
- GE-HTS [4, 9]: −0.407
- MTT [5, 9]: −0.029
- ROS [6, 9]: −0.301
- nucOX [7, 9]: −0.287
- mitoOX [8, 9]: −0.632

SMILES: CC1(C)C(=O)C=C[C@]2(C)[C@H]3CC[C@@]4(C)[C@H](c5ccoc5)OC(=O)[C@H]5O[C@]54[C@]3(C)[C@H](O)C[C@@H]12 [deacetylgedunin]
- cyt c [1, 9]: −0.489
- Viability [2, 9]: −0.032
- ΔΨm [3, 9]: 0.349
- GE-HTS [4, 9]: −0.322
- MTT [5, 9]: −0.958
- ROS [6, 9]: −0.966
- nucOX [7, 9]: −0.244
- mitoOX [8, 9]: −0.484

SMILES: CC(C)c1ccc2c(c1)CC[C@H]1[C@](C)(C(N)=O)CCC[C@]21C [dehydroabietamide]
- cyt c [1, 14]: 0.030
- Viability [2, 14]: 0.807
- ΔΨm [3, 14]: 1.642
- GE-HTS [4, 14]: −0.843
- MTT [5, 14]: −0.187
- ROS [6, 14]: −0.130
- nucOX [7, 14]: −0.731
- mitoOX [8, 14]: −0.877

SMILES: COc1cc2c(cc1OC)-c1c(oc3c4c(ccc3c1=O)OC(C(C)C)C4)CO2 (stereo not shown) [dehydrodihydrorotenone, reference compound]
- cyt c [1, 9]: −0.211
- Viability [2, 9]: −0.172
- ΔΨm [3, 9]: 0.125
- GE-HTS [4, 9]: −0.001
- MTT [5, 9]: −3.034
- ROS [6, 9]: 0.051
- nucOX [7, 9]: −0.290
- mitoOX [8, 9]: 0.535

SMILES: COc1ccc2c(c1)OCc1c-2oc2cc(OC)ccc12 [dehydrovariabilin]
- cyt c [1, 13]: 0.043
- Viability [2, 13]: 0.309
- ΔΨm [3, 13]: 0.951
- GE-HTS [4, 13]: 0.367
- MTT [5, 13]: −1.225
- ROS [6, 13]: 0.167
- nucOX [7, 13]: 0.277
- mitoOX [8, 13]: 0.416

SMILES: CCN1C[C@]2(C)CC[C@H](OC)[C@@]34C1[C@]1(OCO[C@@]15C[C@H](OC)[C@H]1C[C@]3(O)[C@@H]5[C@H]1OC)[C@@H](OC(C)=O)[C@H]24 [deltaline]
- cyt c (composite Z-score) [1, 10]: 0.271
- Viability (composite Z-score) [2, 10]: −0.735
- ΔΨm (composite Z-score) [3, 10]: −0.496
- GE-HTS (composite Z-score) [4, 10]: −0.220
- MTT (composite Z-score) [5, 10]: −1.231
- ROS (composite Z-score) [6, 10]: 1.654
- nucOX (composite Z-score) [7, 10]: −0.062
- mitoOX (composite Z-score) [8, 10]: −0.422

SMILES: CC(=O)O[C@@H]1CC2C(C)(C)CCC[C@]2(C)C2CC[C@]3(C)C(=CC(=O)O[C@H]3c3ccoc3)[C@@]21C (stereo partly shown) [deoxodeoxydihydrogedunin]
- cyt c [1, 9]: 0.837
- Viability [2, 9]: 0.876
- ΔΨm [3, 9]: 0.941
- GE-HTS [4, 9]: −1.452
- MTT [5, 9]: −0.551
- ROS [6, 9]: 0.995
- nucOX [7, 9]: −1.370
- mitoOX [8, 9]: −1.397

SMILES: CC1(C)C2CC(=O)O[C@@]3(C)C4=CC(=O)O[C@@H](c5ccoc5)[C@]4(C)CCC3[C@@]2(C)C=C[C@H]1O (stereo partly shown) [deoxyandirobin lactone]
- cyt c [1, 9]: 0.893
- Viability [2, 9]: 0.281
- ΔΨm [3, 9]: −0.395
- GE-HTS [4, 9]: −1.510
- MTT [5, 9]: −1.509
- ROS [6, 9]: 0.837
- nucOX [7, 9]: −1.558
- mitoOX [8, 9]: −1.179
